Calls of active or inactive are those of the source. The calls are words filed in the database; no cut-off is given here. *1 amine or outer side, *2 acyl side, *3 side chain or, on linkers, in order; H or OH if unused. Where a SMILES comes first, the peptide text is derived from it. Bridges are numbered along the chain shown (N, C = ends). [ ]: non-standard residue; d: D form. Gly(pent-4-enyl) = C=CCCC[C@H](N)C(=O)O; Octanediyl(1,8) = C(CCCC[*:2])CCC[*:1]; S5 = C=CCCC[C@](C)(N)C(=O)O; X2 = C(CCC[*:2])CC[*:1]; X4 = C(CC[*:2])C[*:1]
Experiments:
[1] = Half life of compound; type: physicochemical
[2] = tested on: NIH3T3; experiment: Inhibition of TGF-beta1-induced EMT in mouse NIH3T3 cells assessed as decrease in alpha-SMA level at 10 uM incubated for 48 hrs by Western blot analysis; type: functional, cell-based
[3] = tested on: NIH3T3; experiment: Inhibition of TGF-beta1-induced EMT in mouse NIH3T3 cells assessed as decrease in fibronectin level at 10 uM incubated for 48 hrs by Western blot analysis; type: functional, cell-based
[4] = tested on: NIH3T3; experiment: Cytotoxicity against mouse NIH3T3 cells assessed as inhibition of cell viability up to 160 uM incubated for 48 hrs by CCK8 assay; type: toxicity, cell-based; details: nih3t3, 48 h
[5] = Stability in C57BL/6J mouse serum assessed as proteolysis resistance measured up to 72 hrs by HPLC analysis; type: ADME, cell-free
[6] = tested on: NIH3T3; experiment: Cytotoxicity against mouse NIH3T3 cells assessed as inhibition of cell viability at 10 to 40 uM incubated for 48 hrs by CCK8 assay; type: toxicity, cell-based; details: nih3t3, 48 h, dose 10-40 µM

| Compound | half-life [1] [h] | Stability [5] | inhibition [2] | inhibition [3] | Activity [4] | Activity [6] |
| --- | --- | --- | --- | --- | --- | --- |
| C=CCCC[C@](C)(NC(=O)[C@H](Cc1c[nH]cn1)NC(=O)[C@@H](N)CC(=O)O)C(=O)N[C@@H](CS)C(=O)N1CCC[C@H]1C(=O)N[C@@H](CCC(N)=O)C(=O)N[C@H](C(=O)N[C@@H](CS)C(N)=O)[C@@H](C)CC (H-DH[S5]CPQIC-NH2) | 1.48 | Stable |  |  | Non-toxic |  |
| C=CCCC[C@](C)(NC(=O)[C@H](Cc1c[nH]cn1)NC(=O)[C@@H](CC(=O)O)NC(=O)CCCCCCCCCCCCC)C(=O)N[C@H](CC(N)=O)C(=O)N1CCC[C@H]1C(=O)N[C@@H](CCC(N)=O)C(=O)N[C@H](C)C(=O)N[C@@H](CCCNC(=N)N)C(N)=O |  |  | Active | Active | Toxic |  |
| CC[C@H](C)[C@@H]1NC(=O)[C@H](CCC(N)=O)NC(=O)[C@@H]2CCCN2C(=O)[C@H](CC(N)=O)NC(=O)[C@H](CC(N)=O)NC(=O)[C@H](Cc2c[nH]cn2)NC(=O)[C@H](CC(=O)O)NC(=O)[C@H](CCCNC(=N)N)NC1=O (cyclo(DHNNPQIR)) | 9.97 |  | Active | Active | Non-toxic |  |
| C=CCCC[C@](C)(NC(=O)[C@H](Cc1c[nH]cn1)NC(=O)[C@@H](N)CC(=O)O)C(=O)N[C@H]1CSCCCCSC[C@@H](C(N)=O)NC(=O)[C@H]([C@@H](C)CC)NC(=O)[C@H](CCC(N)=O)NC(=O)[C@@H]2CCCN2C1=O (H-DH[S5]CPQIC-NH2; linker 4-8 via X4) | 54.1 |  | Active | Active | Non-toxic |  |
| C=CCCC[C@](C)(NC(=O)[C@H](Cc1c[nH]cn1)NC(=O)[C@@H](CC(=O)O)NC(=O)CCCCCCCCCCC)C(=O)N[C@H](CC(N)=O)C(=O)N1CCC[C@H]1C(=O)N[C@@H](CCC(N)=O)C(=O)N[C@H](C)C(=O)N[C@@H](CCCNC(=N)N)C(N)=O |  |  | Active | Active | Toxic |  |
| C=CCCC[C@](C)(NC(=O)[C@H](Cc1c[nH]cn1)NC(=O)[C@@H](CC(=O)O)NC(=O)CCCCCCCCCCCCCCCCC)C(=O)N[C@H](CC(N)=O)C(=O)N1CCC[C@H]1C(=O)N[C@@H](CCC(N)=O)C(=O)N[C@H](C)C(=O)N[C@@H](CCCNC(=N)N)C(N)=O |  |  | Active | Active | Toxic |  |
| H-HNNPQIRD-OH | 0.57 |  |  |  | Non-toxic |  |
| C=CCCC[C@](C)(NC(=O)[C@H](Cc1c[nH]cn1)NC(=O)[C@@H](CC(=O)O)NC(=O)CCCCCCCCCCC)C(=O)N[C@H]1CSCCCCCCSC[C@@H](C(N)=O)NC(=O)[C@@H](C)NC(=O)[C@H](CCC(N)=O)NC(=O)[C@@H]2CCCN2C1=O | 91.6 | Stable | Active | Active | Toxic |  |
| C=CCCC[C@](C)(NC(=O)[C@H](Cc1c[nH]cn1)NC(=O)[C@@H](CC(=O)O)NC(=O)CCCCCCCCCCCCCCC)C(=O)N[C@H](CC(N)=O)C(=O)N1CCC[C@H]1C(=O)N[C@@H](CCC(N)=O)C(=O)N[C@H](C)C(=O)N[C@@H](CCCNC(=N)N)C(N)=O |  |  | Active | Active | Toxic |  |
| C=CCCC[C@](C)(NC(=O)[C@H](CCC(N)=O)NC(=O)[C@@H]1CCCN1C(=O)[C@@H](CC(N)=O)NC(=O)[C@](C)(CCCC=C)NC(=O)[C@H](Cc1c[nH]cn1)NC(=O)[C@@H](CC(=O)O)NC(=O)CCCCCCCCCCC)C(=O)N[C@@H](CCCNC(=N)N)C(N)=O | 208 | Stable | Active | Active |  | Toxic |
| CC[C@H](C)[C@H](NC(=O)[C@H](CCC(N)=O)NC(=O)[C@@H]1CCCN1C(=O)[C@H](CS)NC(=O)[C@H](CC(N)=O)NC(=O)[C@H](Cc1c[nH]cn1)NC(=O)[C@@H](N)CC(=O)O)C(=O)N[C@@H](CS)C(N)=O (H-DHNCPQIC-NH2) | 3.82 | Stable |  |  | Non-toxic |  |
| C[C@@H](NC(=O)[C@H](CCC(N)=O)NC(=O)[C@@H]1CCCN1C(=O)[C@@H](CC(N)=O)NC(=O)[C@H](CCC(N)=O)NC(=O)[C@H](Cc1c[nH]cn1)NC(=O)[C@H](N)CC(=O)O)C(=O)N[C@@H](CCCNC(=N)N)C(N)=O | 424 |  | Active | Active | Non-toxic |  |

Further lines, with some results ahead:

| half-life [1] [h] | Stability [5] | Compound | inhibition [2] | inhibition [3] | Activity [4] | Activity [6] |
| --- | --- | --- | --- | --- | --- | --- |
| 102 |  | C[C@@H](NC(=O)[C@H](CCC(N)=O)NC(=O)[C@@H]1CCCN1C(=O)[C@@H](CC(N)=O)NC(=O)[C@H](Cc1ccccc1)NC(=O)[C@H](Cc1c[nH]cn1)NC(=O)[C@H](N)CC(=O)O)C(=O)N[C@@H](CCCNC(=N)N)C(N)=O | Active | Active | Non-toxic |  |
| 1.81 | Unstable | C=CCCC[C@](C)(NC(=O)[C@H](Cc1c[nH]cn1)NC(=O)[C@@H](N)CC(=O)O)C(=O)N[C@H]1CSCCCCCCSC[C@@H](C(N)=O)NC(=O)[C@H]([C@@H](C)CC)NC(=O)[C@H](CCC(N)=O)NC(=O)[C@@H]2CCCN2C1=O (H-DH[S5]CPQIC-NH2; linker 4-8 via X2) | Active | Active | Non-toxic |  |
| 272 |  | C[C@@H](NC(=O)[C@H](CCC(N)=O)NC(=O)[C@@H]1CCCN1C(=O)[C@@H](CC(N)=O)NC(=O)[C@H](CCCCN)NC(=O)[C@H](Cc1c[nH]cn1)NC(=O)[C@H](N)CC(=O)O)C(=O)N[C@@H](CCCNC(=N)N)C(N)=O | inactive | inactive | Non-toxic |  |
| 656 | Stable | C=CCCC[C@](C)(NC(=O)[C@@H](C)NC(=O)[C@H](CCC(N)=O)NC(=O)[C@@H]1CCCN1C(=O)[C@](C)(CCCC=C)NC(=O)[C@H](CC(N)=O)NC(=O)[C@H](Cc1c[nH]cn1)NC(=O)[C@@H](CC(=O)O)NC(=O)CCCCCCCCCCC)C(N)=O | Active | Active |  | Toxic |
| 5.67 | Stable | C=CCCC[C@](C)(NC(=O)[C@@H](NC(=O)[C@H](CCC(N)=O)NC(=O)[C@@H]1CCCN1C(=O)[C@](C)(CCCC=C)NC(=O)[C@H](CC(N)=O)NC(=O)[C@H](Cc1c[nH]cn1)NC(=O)[C@@H](N)CC(=O)O)[C@@H](C)CC)C(N)=O (H-DHN[S5]PQI[S5]-NH2) | Active | Active | Non-toxic |  |
| 2.01 | Unstable | CC[C@H](C)[C@@H]1NC(=O)[C@H](CCC(N)=O)NC(=O)[C@@H]2CCCN2C(=O)[C@@H](NC(=O)[C@H](CC(N)=O)NC(=O)[C@H](Cc2c[nH]cn2)NC(=O)[C@@H](N)CC(=O)O)CSCCCCCCCCSC[C@@H](C(N)=O)NC1=O (H-DHNCPQIC-NH2; linker 4-8 via Octanediyl(1,8)) | Active | Active | Non-toxic |  |
| 12.3 | Stable | CC[C@H](C)[C@@H]1NC(=O)[C@H](CCC(N)=O)NC(=O)[C@@H]2CCCN2C(=O)[C@@](C)(NC(=O)[C@H](CC(N)=O)NC(=O)[C@H](Cc2c[nH]cn2)NC(=O)[C@@H](N)CC(=O)O)CCC/C=C/CCC[C@@](C)(C(N)=O)NC1=O (H-DHN[S5]PQI[S5]-NH2; staple (E) 4-8) | inactive | inactive | Non-toxic |  |
| 1.11 | Stable | C[C@@]1(C(=O)N[C@@H](CCCNC(=N)N)C(N)=O)CCC/C=C\CCC[C@](C)(NC(=O)[C@H](Cc2cnc[nH]2)NC(=O)[C@@H](N)CC(=O)O)C(=O)N[C@@H](CC(N)=O)C(=O)N2CCC[C@H]2C(=O)N[C@@H](CCC(N)=O)C(=O)N1 (H-DH[S5]NPQ[S5]R-NH2; staple (Z) 3-7) | inactive | inactive | Non-toxic |  |
| 129 |  | C=CCCC[C@](C)(NC(=O)[C@H](Cc1c[nH]cn1)NC(=O)[C@H](N)CC(=O)O)C(=O)N[C@H](CC(N)=O)C(=O)N1CCC[C@H]1C(=O)N[C@@H](CCC(N)=O)C(=O)N[C@H](C)C(=O)N[C@@H](CCCNC(=N)N)C(N)=O | Active | Active | Non-toxic |  |
| 0.9 | Stable | C=CCCC[C@H](NC(=O)[C@H](CCC(N)=O)NC(=O)[C@@H]1CCCN1C(=O)[C@H](CC(N)=O)NC(=O)[C@](C)(CCCC=C)NC(=O)[C@H](Cc1c[nH]cn1)NC(=O)[C@@H](N)CC(=O)O)C(=O)N[C@@H](CCCNC(=N)N)C(N)=O (H-DH[S5]NPQ[Gly(pent-4-enyl)]R-NH2) | Active | Active | Non-toxic |  |
| 125 |  | CC[C@H](C)[C@H](NC(=O)[C@H](Cc1c[nH]cn1)NC(=O)[C@H](N)CC(=O)O)C(=O)N[C@H](CC(N)=O)C(=O)N1CCC[C@H]1C(=O)N[C@@H](CCC(N)=O)C(=O)N[C@H](C)C(=O)N[C@@H](CCCNC(=N)N)C(N)=O | Active | Active | Non-toxic |  |
| 101 |  | C[C@@H](NC(=O)[C@H](CCC(N)=O)NC(=O)[C@@H]1CCCN1C(=O)[C@@H](CC(N)=O)NC(=O)[C@H](CC(N)=O)NC(=O)[C@H](Cc1c[nH]cn1)NC(=O)[C@H](N)CC(=O)O)C(=O)N[C@@H](CCCNC(=N)N)C(N)=O | Active | Active | Non-toxic |  |

Source: ChEMBL document CHEMBL6177971, “Iterative Optimization Yields Stapled Peptides with Superior Pharmacokinetics and Potency for Renal Fibrosis Treatment” (J Med Chem, 2025)
